Measurements published in PubChem BioAssay AID1963830 (Molecular Pharmacology Branch, DTP, NCI, 2024).

Tested on: 922993-354-T-J3-PDC complex spheroid viability
Assay: Anticancer human tumor 922993-354-T-J3-PDC patient-derived endometrial carcinoma cell line growth inhibition [POLQ]
Details: for IC50: curve of first compound; for viability, T/C: stronger effect = lower value
Summary of the method: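 PDC + HUVEC + MSC complex spheroids; POLQ inhibitors ± partner drugs; top conc. at/near clinical Cmax, else 10 microM (SN-38 1 microM), half-log dilutions; 37 degrees C, 5% CO2.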

[1] = second compound 0.0316 µM, first compound 0.00316 µM
[2] = second compound 0.0316 µM, first compound 0.01 µM
[3] = second compound 0.0316 µM, first compound 0.0316 µM
[4] = second compound 0.0316 µM, first compound 0.1 µM
[5] = second compound 0.0316 µM, first compound 0.316 µM
[6] = second compound 0.0316 µM, first compound 1 µM
[7] = second compound 0.1 µM, first compound 0.00316 µM
[8] = second compound 0.1 µM, first compound 0.01 µM
[9] = second compound 0.1 µM, first compound 0.0316 µM
[10] = second compound 0.1 µM, first compound 0.1 µM
[11] = second compound 0.1 µM, first compound 0.316 µM
[12] = second compound 0.1 µM, first compound 1 µM
[13] = second compound 0.316 µM, first compound 0.00316 µM
[14] = second compound 0.316 µM, first compound 0.01 µM
[15] = second compound 0.316 µM, first compound 0.0316 µM
[16] = second compound 0.316 µM, first compound 0.1 µM
[17] = second compound 0.316 µM, first compound 0.316 µM
[18] = second compound 0.316 µM, first compound 1 µM
[19] = second compound 1 µM, first compound 0.00316 µM
[20] = second compound 1 µM, first compound 0.01 µM
[21] = second compound 1 µM, first compound 0.0316 µM
[22] = second compound 1 µM, first compound 0.1 µM
[23] = second compound 1 µM, first compound 0.316 µM
[24] = second compound 1 µM, first compound 1 µM
[25] = second compound 3.16 µM, first compound 0.00316 µM
[26] = second compound 3.16 µM, first compound 0.01 µM
[27] = second compound 3.16 µM, first compound 0.0316 µM
[28] = second compound 3.16 µM, first compound 0.1 µM
[29] = second compound 3.16 µM, first compound 0.316 µM
[30] = second compound 3.16 µM, first compound 1 µM
[31] = second compound 10 µM, first compound 0.00316 µM
[32] = second compound 10 µM, first compound 0.01 µM
[33] = second compound 10 µM, first compound 0.0316 µM
[34] = second compound 10 µM, first compound 0.1 µM
[35] = second compound 10 µM, first compound 0.316 µM
[36] = second compound 10 µM, first compound 1 µM
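Further: spheroids exposed to the agents for one week.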
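Wherever viability, T/C is given: 100% = DMSO vehicle control wells.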

C=CCn1c(=O)c2cnc(Nc3ccc(N4CCN(C)CC4)cc3)nc2n1-c1cccc(C(C)(C)O)n1 + Cc1cccc(N(C)C(=O)C2C(O)CCN2c2nc(C)cc(C(F)(F)F)c2C#N)c1
IC50 (second compound 0.0316 µM): > 1000 nM | IC50 (second compound 0.1 µM): > 1000 nM | IC50 (second compound 0.316 µM): > 1000 nM | IC50 (second compound 1 µM): > 1000 nM | IC50 (second compound 3.16 µM): > 1000 nM | IC50 (second compound 10 µM): > 1000 nM | viability, T/C [1]: 101% | viability, T/C [2]: 105% | viability, T/C [3]: 102% | viability, T/C [4]: 101% | viability, T/C [5]: 105% | viability, T/C [6]: 102% | viability, T/C [7]: 105% | viability, T/C [8]: 104% | viability, T/C [9]: 99.5% | viability, T/C [10]: 103% | viability, T/C [11]: 105% | viability, T/C [12]: 101% | viability, T/C [13]: 103% | viability, T/C [14]: 106% | viability, T/C [15]: 98.1% | viability, T/C [16]: 104% | viability, T/C [17]: 104% | viability, T/C [18]: 103% | viability, T/C [19]: 105% | viability, T/C [20]: 101% | viability, T/C [21]: 106% | viability, T/C [22]: 99.1% | viability, T/C [23]: 104% | viability, T/C [24]: 104% | viability, T/C [25]: 99.9% | viability, T/C [26]: 101% | viability, T/C [27]: 100% | viability, T/C [28]: 101% | viability, T/C [29]: 104% | viability, T/C [30]: 99% | viability, T/C [31]: 103% | viability, T/C [32]: 97.1% | viability, T/C [33]: 98.5% | viability, T/C [34]: 97.3% | viability, T/C [35]: 103% | viability, T/C [36]: 94.2%

CCCS(=O)(=O)Nc1ccc(F)c(C(=O)c2c[nH]c3ncc(-c4ccc(Cl)cc4)cc23)c1F + Cc1cccc(N(C)C(=O)C2C(O)CCN2c2nc(C)cc(C(F)(F)F)c2C#N)c1
IC50 (second compound 0.0316 µM): > 10000 nM | IC50 (second compound 0.1 µM): > 10000 nM | IC50 (second compound 0.316 µM): > 10000 nM | IC50 (second compound 1 µM): > 10000 nM | IC50 (second compound 3.16 µM): > 10000 nM | IC50 (second compound 10 µM): > 10000 nM | viability, T/C [3]: 103% | viability, T/C [4]: 99.5% | viability, T/C [5]: 103% | viability, T/C [6]: 98.1% | viability, T/C (second compound 0.0316 µM, first compound 3.16 µM): 106% | viability, T/C (second compound 0.0316 µM, first compound 10 µM): 97.5% | viability, T/C [9]: 101% | viability, T/C [10]: 102% | viability, T/C [11]: 103% | viability, T/C [12]: 100% | viability, T/C (second compound 0.1 µM, first compound 3.16 µM): 102% | viability, T/C (second compound 0.1 µM, first compound 10 µM): 90.1% | viability, T/C [15]: 104% | viability, T/C [16]: 101% | viability, T/C [17]: 105% | viability, T/C [18]: 104% | viability, T/C (second compound 0.316 µM, first compound 3.16 µM): 103% | viability, T/C (second compound 0.316 µM, first compound 10 µM): 95.8% | viability, T/C [21]: 102% | viability, T/C [22]: 99.8% | viability, T/C [23]: 100% | viability, T/C [24]: 103% | viability, T/C (second compound 1 µM, first compound 3.16 µM): 105% | viability, T/C (second compound 1 µM, first compound 10 µM): 95% | viability, T/C [27]: 102% | viability, T/C [28]: 103% | viability, T/C [29]: 101% | viability, T/C [30]: 97.7% | viability, T/C (second compound 3.16 µM, first compound 3.16 µM): 107% | viability, T/C (second compound 3.16 µM, first compound 10 µM): 94.5% | viability, T/C [33]: 98.6% | viability, T/C [34]: 103% | viability, T/C [35]: 104% | viability, T/C [36]: 100% | viability, T/C (second compound 10 µM, first compound 3.16 µM): 108% | viability, T/C (second compound 10 µM, first compound 10 µM): 93.2%

CC[C@@]1(O)C(=O)OCc2c1cc1n(c2=O)Cc2cc3c(CN(C)C)c(O)ccc3nc2-1 + Cc1cccc(N(C)C(=O)C2C(O)CCN2c2nc(C)cc(C(F)(F)F)c2C#N)c1
IC50 (second compound 0.0316 µM): 90.6 nM | IC50 (second compound 0.1 µM): > 100 nM | IC50 (second compound 0.316 µM): > 100 nM | IC50 (second compound 1 µM): > 100 nM | IC50 (second compound 3.16 µM): > 100 nM | IC50 (second compound 10 µM): 48.5 nM | viability, T/C (second compound 0.0316 µM, first compound 0.000316 µM): 108% | viability, T/C (second compound 0.0316 µM, first compound 0.001 µM): 100% | viability, T/C [1]: 104% | viability, T/C [2]: 98.6% | viability, T/C [3]: 88.2% | viability, T/C [4]: 46.3% | viability, T/C (second compound 0.1 µM, first compound 0.000316 µM): 109% | viability, T/C (second compound 0.1 µM, first compound 0.001 µM): 101% | viability, T/C [7]: 103% | viability, T/C [8]: 102% | viability, T/C [9]: 90% | viability, T/C [10]: 65.5% | viability, T/C (second compound 0.316 µM, first compound 0.000316 µM): 110% | viability, T/C (second compound 0.316 µM, first compound 0.001 µM): 104% | viability, T/C [13]: 94.9% | viability, T/C [14]: 102% | viability, T/C [15]: 87% | viability, T/C [16]: 59.1% | viability, T/C (second compound 1 µM, first compound 0.000316 µM): 104% | viability, T/C (second compound 1 µM, first compound 0.001 µM): 99.5% | viability, T/C [19]: 104% | viability, T/C [20]: 99.7% | viability, T/C [21]: 86% | viability, T/C [22]: 57.3% | viability, T/C (second compound 3.16 µM, first compound 0.000316 µM): 108% | viability, T/C (second compound 3.16 µM, first compound 0.001 µM): 102% | viability, T/C [25]: 94.1% | viability, T/C [26]: 93% | viability, T/C [27]: 77.1% | viability, T/C [28]: 49.9% | viability, T/C (second compound 10 µM, first compound 0.000316 µM): 101% | viability, T/C (second compound 10 µM, first compound 0.001 µM): 99.2% | viability, T/C [31]: 99.2% | viability, T/C [32]: 79.1% | viability, T/C [33]: 68.3% | viability, T/C [34]: 23.7%
